How the values were obtained:
Experiment in all cases: relative viability (nuclei count vs DMSO), 5 days (fraction); higher = more cells survive
[1] = system: NCI-H2170
Outline: (§1)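 A single step with final 0.05% Triton X-100, 1% formaldehyde and 1 ug/ml Hoechst fixed the cells and stained nuclei 5 days after treatment. Lung cancer cell lines in 1536-well plates had been treated by pin tool the day after seeding with one drug alone or a fixed anchor-drug dose plus five library-drug doses (not always all listed) in √10 steps, and nuclei were counted on 4× images. Relative viability is the ratio of nuclei in treated wells to nuclei in vehicle wells, taken as the median of duplicate plates.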

[2] = system: H3255
Outline: as §1

[3] = system: NCI-H2126
Outline: as §1

[4] = system: NCI-H322M
Outline: as §1

[5] = system: ChaGo-K-1
Outline: as §1

[6] = system: NCI-H596
Outline: as §1

[7] = system: HOP-62
Outline: as §1

[8] = system: NCI-H441
Outline: as §1

[9] = system: 201T
Outline: as §1

[10] = system: PC-14
Outline: as §1

[11] = system: NCI-H3122
Outline: as §1

[12] = system: NCI-H1755
Outline: as §1

[13] = system: SK-MES-1
Outline: as §1

[14] = system: LXF-289
Outline: as §1

[15] = system: EMC-BAC-2
Outline: as §1

[16] = system: LK-2
Outline: as §1

[17] = system: NCI-H2009
Outline: as §1

[18] = system: NCI-H2087
Outline: as §1

[19] = system: NCI-H1734
Outline: as §1

[20] = system: CAL-12T
Outline: as §1

[21] = system: NCI-H647
Outline: as §1

[22] = system: NCI-H1651
Outline: as §1

## O=C(O)CCCCC(CCSCc1ccccc1)SCc1ccccc1 (stereo not given) [CPI-613] + Nc1nc2[nH]cc(CCc3ccc(C(=O)N[C@@H](CCC(=O)O)C(=O)O)cc3)c2c(=O)[nH]1 [Pemetrexed] (partner 0.2 µM)
[1]; first compound 5 µM
  relative viability: 0.278
[1]; first compound 15.81 µM
  relative viability: 0.251
[1]; first compound 50 µM
  relative viability: 0.244
[1]; first compound 158.11 µM
  relative viability: 0.26
[1]; first compound 500 µM
  relative viability: 0.227
[2]; first compound 5 µM
  relative viability: 0.543
[2]; first compound 15.81 µM
  relative viability: 0.54
[2]; first compound 50 µM
  relative viability: 0.543
[2]; first compound 158.11 µM
  relative viability: 0.534
[2]; first compound 500 µM
  relative viability: 0.523
[3]; first compound 5 µM
  relative viability: 0.65
[3]; first compound 15.81 µM
  relative viability: 0.632
[3]; first compound 50 µM
  relative viability: 0.636
[3]; first compound 158.11 µM
  relative viability: 0.385
[3]; first compound 500 µM
  relative viability: 0.219
[4]; first compound 5 µM
  relative viability: 0.617
[4]; first compound 15.81 µM
  relative viability: 0.58
[4]; first compound 50 µM
  relative viability: 0.616
[4]; first compound 158.11 µM
  relative viability: 0.637
[4]; first compound 500 µM
  relative viability: 0.441
[5]; first compound 5 µM
  relative viability: 0.269
[5]; first compound 15.81 µM
  relative viability: 0.261
[5]; first compound 50 µM
  relative viability: 0.264
[5]; first compound 158.11 µM
  relative viability: 0.248
[5]; first compound 500 µM
  relative viability: 0.187
[6]; first compound 5 µM
  relative viability: 0.538
[6]; first compound 15.81 µM
  relative viability: 0.48
[6]; first compound 50 µM
  relative viability: 0.519
[6]; first compound 158.11 µM
  relative viability: 0.352
[6]; first compound 500 µM
  relative viability: 0.0295
[7]; first compound 5 µM
  relative viability: 0.321
[7]; first compound 15.81 µM
  relative viability: 0.309
[7]; first compound 50 µM
  relative viability: 0.272
[7]; first compound 158.11 µM
  relative viability: 0.163
[7]; first compound 500 µM
  relative viability: 0.12
[8]; first compound 5 µM
  relative viability: 0.266
[8]; first compound 15.81 µM
  relative viability: 0.242
[8]; first compound 50 µM
  relative viability: 0.236
[8]; first compound 158.11 µM
  relative viability: 0.151
[8]; first compound 500 µM
  relative viability: 0.0045
[9]; first compound 5 µM
  relative viability: 0.268
[9]; first compound 15.81 µM
  relative viability: 0.341
[9]; first compound 50 µM
  relative viability: 0.327
[9]; first compound 158.11 µM
  relative viability: 0.24
[9]; first compound 500 µM
  relative viability: 0.179
[10]; first compound 5 µM
  relative viability: 0.133
[10]; first compound 15.81 µM
  relative viability: 0.13
[10]; first compound 50 µM
  relative viability: 0.122
[10]; first compound 158.11 µM
  relative viability: 0.121
[10]; first compound 500 µM
  relative viability: 0.0065
[11]; first compound 5 µM
  relative viability: 0.19
[11]; first compound 15.81 µM
  relative viability: 0.194
[11]; first compound 50 µM
  relative viability: 0.181
[11]; first compound 158.11 µM
  relative viability: 0.181
[11]; first compound 500 µM
  relative viability: 0.153
[12]; first compound 5 µM
  relative viability: 0.436
[12]; first compound 15.81 µM
  relative viability: 0.57
[12]; first compound 50 µM
  relative viability: 0.371
[12]; first compound 158.11 µM
  relative viability: 0.396
[12]; first compound 500 µM
  relative viability: 0.372
[13]; first compound 5 µM
  relative viability: 0.975
[13]; first compound 15.81 µM
  relative viability: 0.807
[13]; first compound 50 µM
  relative viability: 0.737
[13]; first compound 158.11 µM
  relative viability: 0.17
[13]; first compound 500 µM
  relative viability: 0.104
[14]; first compound 5 µM
  relative viability: 0.903
[14]; first compound 15.81 µM
  relative viability: 0.828
[14]; first compound 50 µM
  relative viability: 0.851
[14]; first compound 158.11 µM
  relative viability: 0.757
[14]; first compound 500 µM
  relative viability: 0.568
[15]; first compound 5 µM
  relative viability: 0.435
[15]; first compound 15.81 µM
  relative viability: 0.409
[15]; first compound 50 µM
  relative viability: 0.456
[15]; first compound 158.11 µM
  relative viability: 0.461
[15]; first compound 500 µM
  relative viability: 0.349
[16]; first compound 5 µM
  relative viability: 0.337
[16]; first compound 15.81 µM
  relative viability: 0.225
[16]; first compound 50 µM
  relative viability: 0.324
[16]; first compound 158.11 µM
  relative viability: 0.265
[16]; first compound 500 µM
  relative viability: 0.241
[17]; first compound 5 µM
  relative viability: 0.985
[17]; first compound 15.81 µM
  relative viability: 1
[17]; first compound 50 µM
  relative viability: 0.947
[17]; first compound 158.11 µM
  relative viability: 0.322
[17]; first compound 500 µM
  relative viability: 0.0262
[18]; first compound 5 µM
  relative viability: 0.642
[18]; first compound 15.81 µM
  relative viability: 0.662
[18]; first compound 50 µM
  relative viability: 0.689
[18]; first compound 158.11 µM
  relative viability: 0.574
[18]; first compound 500 µM
  relative viability: 0.007
[19]; first compound 5 µM
  relative viability: 0.387
[19]; first compound 15.81 µM
  relative viability: 0.418
[19]; first compound 50 µM
  relative viability: 0.411
[19]; first compound 158.11 µM
  relative viability: 0.38
[19]; first compound 500 µM
  relative viability: 0.131
[20]; first compound 5 µM
  relative viability: 1.02
[20]; first compound 15.81 µM
  relative viability: 1.03
[20]; first compound 50 µM
  relative viability: 1.02
[20]; first compound 158.11 µM
  relative viability: 0.0985
[20]; first compound 500 µM
  relative viability: 0.0501
[21]; first compound 5 µM
  relative viability: 0.157
[21]; first compound 15.81 µM
  relative viability: 0.158
[21]; first compound 50 µM
  relative viability: 0.113
[21]; first compound 158.11 µM
  relative viability: 0.0906
[21]; first compound 500 µM
  relative viability: 0.0167
[22]; first compound 5 µM
  relative viability: 0.591
[22]; first compound 15.81 µM
  relative viability: 0.588
[22]; first compound 50 µM
  relative viability: 0.579
[22]; first compound 158.11 µM
  relative viability: 0.519
[22]; first compound 500 µM
  relative viability: 0.579

Source: the supplement of paper PMC10307832
